# In patent US11524950B2, “Treatment of immune-related and inflammatory diseases” (Celgene Corporation, priority 2012, dated 2022):
# Tests used:
# [1] = tested on: DBA/2 mice; test: Bleomycin-induced dermal fibrosis mouse model (prevention); assay type: in vivo; conditions: 50 mg/kg, IP, QD, p<0.0001
# Experimental: (§1) DBA/2 mice were used in this study. Eight animals were used per treatment group in the study. Mice were kept in the animal house under standard conditions with food and water ad libidum.
# The vehicle, 0.5% carboxymethyl cellulose (CMC)/0.25% Tween 80, was prepared in distilled H2O and dissolved overnight on a magnetic stirrer (add 0.5 g CMC; Sigma #C9481) and 0.25 ml Tween 80 (Sigma #P8074) to 99.75 ml to make a total of 100 ml 0.5% CMC/0.25% Tween 80).
# (§2) The compound was suspended, not dissolved, in this vehicle. The formulation was homogenized with a Teflon pestle and mortar (Potter-Elvehjem tissue grinder) using a motorized Eberbach tissue homogenizer. The daily drug stock concentration used in these studies was 3 mg/ml.
# (§3) Bleomycin was obtained from the pharmacy of the University of Erlangen-Nuremberg and freshly prepared once a week. Skin fibrosis was induced in 6-week-old DBA mice by local intracutaneous injections of 100 μl of bleomycin dissolved in 0.9% NaCl, at a concentration of 0.5 mg/ml, every other day in defined areas of 1.5 cm^2 on the upper back.
# The mouse model of bleomycin induced dermal fibrosis is widely used to evaluate anti-fibrotic therapeutics. In this model, a localized dermal fibrosis is induced by intradermal injections with bleomycin every other day for 3 weeks. This model resembles early, inflammatory stages of SSc. To evaluate potential effects on prevention of fibrosis, treatment was initiated simultaneously with the first bleomycin injection. […] Treatment consisted of administration of the vehicle (0.5% CMC/0.25% Tween 80). • Untreated bleomycin group: Intradermal injection of bleomycin for three weeks. […] Injection of Imatinib (50 mg/kg; IP, QD). […] See Akhmetshina A. et al., Arthritis Rheum 2009; 60(1):219-224.
# (§4) Dermal thickness was determined by staining with hematoxylin and eosin and activated fibroblasts by using immunohistochemistry for alpha smooth muscle actin (α-SMA). The dermal thickness, as determined by the modified Rodnan Skin Score, is currently the most common primary outcome in human clinical trials for anti-fibrotic agents in SSc. […] Dermal thickness was analyzed with a Nikon Eclipse 80i microscope (Nikon, Badhoevedorp, The Netherlands) by measuring the maximal distance between the epidermal-dermal junction and the dermal-subcutaneous fat junction at 4 different skin sections in each mouse. […]
# (§5) For quantification of myofibroblasts, skin sections were deparaffinized and incubated with 5% bovine serum albumin for 60 minutes. Cells positive for α-SMA were detected by incubation with monoclonal anti-α-SMA antibodies (clone 1A4; Sigma-Aldrich, Steinheim, Germany) for 2 hours at room temperature followed by incubation with 3% hydrogen peroxide for 10 minutes. […]
# [2] = tested on: DBA/2 mice; test: Bleomycin-induced dermal fibrosis mouse model (regression of established fibrosis); assay type: in vivo; conditions: 50 mg/kg, p<0.0001
# Experimental: as §1, §2, §3
# To evaluate regression of fibrosis, a modified model of bleomycin induced dermal fibrosis was used. Mice were pre-challenged with bleomycin to induce a robust skin fibrosis. One group received treatment with the test compound, while challenge with bleomycin was ongoing for additional three weeks. The outcome of this group was compared to mice challenged with bleomycin for six weeks (prevention of further progression) and to mice challenged with bleomycin for three weeks followed by NaCl for additional three weeks (induction of regression). The following groups were used in the regression study: • Control group: Intradermal injection of NaCl for six weeks. Control treatment consisted of administration of the vehicle. • Untreated bleomycin group 1 (regression): Intradermal injection of bleomycin for three weeks followed by intradermal injections of NaCl for another three weeks. Treatment consisted of administration of the vehicle. […]
# as §4, §5
# [3] = tested on: Tsk-1 mouse; test: Tight skin-1 (Tsk-1) mouse model: hypodermal thickness and hydroxyproline; assay type: in vivo; conditions: 50 mg/kg; p≤0.001
# Source text: First, the inhibitory effects of the compound on fibrosis in the Tsk-1 tight skin mouse model were also investigated.
# [4] = tested on: IgG; test: IgG production in normal B cell / PBMC differentiation cultures (ELISA); conditions: Homo sapiens
# [5] = tested on: IgG; test: IgG production by SLE patient PBMC (ELISA); conditions: Homo sapiens, read-out: IgG IC50 (nM) SLE (n = 3)
# [6] = tested on: IgM; test: IgM production by SLE patient PBMC (ELISA); conditions: Homo sapiens, read-out: IgM IC50 (nM) SLE (n = 3)
# [7] = tested on: IgM; test: IgM production in normal PBMC differentiation cultures (ELISA); conditions: Homo sapiens, read-out: IgM IC50 (nM) Normal (n = 3)
# [8] = molecular target: T1, CRBN (Homo sapiens, UniProt Q96SW2); test: Competitive CRBN binding with thalidomide analog-conjugated beads (U266 extracts); conditions: preincubation at 3 uM
# T1 construct: endogenous in cells; host or cells: U266 multiple myeloma cells (cell extracts)
# Experimental: Binding studies to CRBN were conducted using thalidomide analog-conjugated beads in a competitive assay. […] Affinity beads coupled to a thalidomide acid analog were incubated with the U266 extracts and, after extensive washing of the beads, the bound proteins were eluted. CRBN binding to the thalidomide-coupled affinity beads was determined by quantitative CRBN immunoblot determination.
# [9] = tested on: IL-2; test: T-cell costimulation: IL-2 production (immobilized anti-CD3, ELISA); assay type: cell-based; conditions: Homo sapiens, 48 h, read-out: EC50 for co-stimulated IL-2 production by T cells
# Experimental: CRBN ubiquitination was measured in HEK293T cells, which were transfected with an amino-terminal His-biotin-tagged CRBN construct, then preincubated with compounds for one hour followed by treatment with the MG132 proteasome inhibitor (to arrest degradation of ubiquitinated proteins). Cells were lysed and processed to measure CRBN ubiquitination by SDS-PAGE and immunoblot analysis using an anti-ubiquitin antibody. Cell proliferation studies were conducted in enalidomide-sensitive and refractory multiple myeloma cells. […] T-cell costimulation was measured in purified primary human T cells stimulated using immobilized anti-CD3 antibody in cell culture for 2 days, and cytokine secretion was measured by ELISA.
# [10] = PBMC, read-out: IgG IC50 (nM) Normal (n = 3)
SMILES,IC50 ([4]; read-out: IgG production IC50) [nM],IC50 [5] [nM],IC50 [6] [nM],IC50 [7] [nM],"IC50 [4, 10] [nM]",further results
"Cc1ccc(NC(=O)c2ccc(CN3CCN(C)CC3)cc2)cc1Nc1nccc(-c2cccnc2)n1 [Imatinib, reference compound]",–,–,–,–,–,reduction of dermal thickening ([1]; 3 weeks): 60±0.34%; reduction of myofibroblast numbers [1]: 81±0.11%; reduction of bleomycin induced dermal thickness [2]: 50±0.3%; reduction of myofibroblast numbers [2]: 78±0.15%; reduction of collagen content of the skin (hydroxyproline levels) [3]: 67%; reduction of hypodermal thickening [3]: 58%
Nc1cccc2c1CN(C1CCC(=O)NC1=O)C2=O (stereo not drawn) [lenalidomide],320,–,–,–,–,–
CCOc1cc([C@@H](CS(C)(=O)=O)N2C(=O)c3cccc(NC(C)=O)c3C2=O)ccc1OC [apremilast],–,> 10000,> 10000,> 10000,> 10000,–
Nc1cccc2c1C(=O)N(C1CCC(=O)NC1=O)C2=O (stereo not drawn) [pomalidomide],49,19,3.8,17,63,less CRBN bound to the affinity beads [8]: approximately 50%; EC50 [9]: 10 nM
